From US8445441B2, “Inhibitors of BCL-2” (Case Western Reserve University, priority 2007, dated 2013) come the findings set out here.

One assay concerns Jurkat cells. Nature of the assay: anti-CD3-induced Ca2+ elevation by digital imaging. Type of assay: cell-based. The method, then:
(§1) FIGS. 6A-D illustrates peptide 2 (SEQ ID NO:3) Reverses Bcl-2's Inhibition of Anti-CD3-Induced Ca^2+Elevation. (A) Representative Ca^2+ traces (each the mean of ˜65 cells) recording anti-CD3 (arrow, time of addition)-induced Ca^2+ elevation in Bcl-2(+) WEHI7.2 cells. Peptide (60 μM) uptake was facilitated by Chariot reagent. (B) Peak anti-CD3 induced Ca^2+ elevation in Bcl-2(−) and Bcl-2(+) WEHI7.2 cells treated with peptides as in (A) [mean±SEM, five experiments for Bcl-2(−) and seven experiments for Bcl-2(+) cells, with mean 68 cells per sample per experiment]. (C) Representative Ca^2+ traces in Jurkat cells (mean 85 cells each). Treatment conditions are the same as in (A), except that a control involving addition of peptide 2 without Chariot reagent has been added. (D) Peak anti-CD3-induced Ca^2+ elevation in Jurkat cells treated with peptides as in (C) (mean±SEM, seven experiments, mean 81 cells per sample per experiment).
(§2) Next we investigated whether peptide 2 also reverses Bcl-2's inhibitory effect on Ca^2+ release through the IP3R in Bcl-2(+) and (−) WEHI7.2 clones, newly derived WEHI7.2 mixed populations exogenously expressing Bcl-2, and Jurkat cells. Optimal conditions for peptide delivery and anti-CD3 concentration were determined in preliminary experiments. Peptide delivery in the lipid bilayer is 100%, whereas the penetration of peptide 2 into cells is much less, accounting for the lesser effect in cells. Therefore, a higher concentration of peptide (60 μM) was delivered into cells using the Chariot delivery reagent. Cytoplasmic Ca^2+ concentration was continuously measured at a single-cell level by digital imaging during anti-CD3 treatment. Representative Ca^2+ traces from Bcl-2(+) WEHI7.2 cells are shown in FIG. 6A, and the average Ca^2+ elevation induced by anti-CD3 in seven experiments is summarized in FIG. 6B. Observed variations in lag phase are at least partially attributable to the fact that lymphocytes are only loosely adherent to coverslips and thus rapid buffer exchange is not possible during antibody additions. Peptide 2 enhanced anti-CD3-induced Ca^2+ elevation in Bcl-2(+) WEHI7.2 cells by 40%. […] Peptide 2 had no effect on Ca^2+ elevation when added to the cells in the absence of the Chariot reagent. […] The low Bcl-2 level in Jurkat cells and the barely detectable endogenous Bcl-2 in Bcl-2(−) WEHI7.2 cells are consistent with the higher amplitude and longer duration of the Ca^2+ response in these cells in contrast to Bcl-2(+) WEHI7.2 cells (compare FIGS. 6A and 6B to FIGS. 6C and 6D). Thus, peptide 2 modulated anti-CD3-induced Ca^2+ elevation in both Bcl-2(+) WEHI7.2 cells and Jurkat cells, consistent with the ability of peptide 2 to disrupt Bcl-2-IP3R interaction.

The test system of a further assay is WEHI7.2 cells. The assay is described as follows: anti-CD3-induced Ca2+ elevation by digital imaging. Type of assay: cell-based. The settings on record: 60 μM peptide with Chariot reagent. The method, then: as §1, §2
In assay [1] the test system is murine embryonic fibroblasts (MEFs). The assay is described as follows: unidirectional 45Ca2+ flux, IP3-induced efflux. The settings on record: in the presence of thapsigargin. Type of assay: cell-based. An excerpt:
The conclusion that peptide 2 acts directly on the Bcl-2-IP3R interaction is supported not only by experiments described above (FIG. 5) in which peptide 2 reversed Bcl-2-mediated inhibition of IP3R channel opening in vitro, but also by unidirectional ^45Ca^2+ flux experiments that allow for very accurate quantification of Ca^2+ release through IP3Rs located on the ER. These experiments require firmly adherent cells, and therefore murine embryonic fibroblasts (MEFs), which have a somewhat lower level of endogenous Bcl-2 than Jurkat cells, were employed. The rate of IP3-induced ^45Ca^2+ efflux was measured in the presence of thapsigargin, which completely prevents ER Ca^2+ reuptake.

The next assay has as its target Bcl-2-IP3R interaction (Homo sapiens, UniProt P10415). Nature of the assay: GST pull-down of Bcl-2 from Bcl-2(+) WEHI7.2 extracts with GST-IP3R domain 3. Type of assay: binding, mouse. Also noted: expressed in transfected cells; host or cells: Bcl-2(+) WEHI7.2 cells (source of Bcl-2). An excerpt:
To identify where Bcl-2 interacts on the IP3R, we used a series of GST-IP3R fusion constructs corresponding to five fragments covering the first N-terminal 2216 amino acids and 1 fragment corresponding to the last 160 amino acids of mouse IP3R type 1 (FIG. 3). These fragments are located in the cytoplasm and coincide with “natural” domains generated by limited proteolysis. The transmembrane domain was not included. After purification, fragments migrated as single prominent bands corresponding to their expected molecular weights, although some minor degradation products were detected.
The first set of GST pull-down experiments utilized extracts of Bcl-2(+) WEHI7.2 cells and Jurkat cells as two independent sources of Bcl-2. Cell extracts were incubated with GST-IP3R fragments prebound to glutathione sepharose resin, with equal loading of the GST-IP3R fragments. […] These experiments were repeated a total of five times with the same result. It is important to note that, following incubation of cell extracts with GST-IP3R fragments on the glutathione sepharose resin, the resin was washed extensively.
Since the IP3R binding region was narrowed down to the 80 amino acid subdomain 3a1 (aa 1347-1426), we designed two 20 amino acid peptides (peptide 1, aa 1365-1384 (SEQ ID NO:2); peptide 2, aa 1389-1408 (SEQ ID NO:3)) based on the degree of homology in this region among different IP3R isoforms. Also, preference was given to regions that have beta-turn and/or α-helical structures, rather than random-coil or nonstructured sequences, expecting that one or both of the peptides could inhibit the Bcl-2-IP3R interaction. Furthermore, the C-terminal region of domain 3a1 was not selected because of its lower accessibility and unpredictable secondary structure (Invitrogen PeptideSelect Design Tool). The scrambled sequence of peptide 2 was also synthesized and used as a control. […] The inhibitory effect of peptide 2 on Bcl-2-IP3R interaction was also detected in coimmunoprecipitation assays employing both Bcl-2(+) WEHI7.2 cells (FIGS. 4A and 4B) and Jurkat cells (FIG. 4C). […]

Chain of Bcl-2-IP3R interaction (P10415 whole entry, the tested form may be a part): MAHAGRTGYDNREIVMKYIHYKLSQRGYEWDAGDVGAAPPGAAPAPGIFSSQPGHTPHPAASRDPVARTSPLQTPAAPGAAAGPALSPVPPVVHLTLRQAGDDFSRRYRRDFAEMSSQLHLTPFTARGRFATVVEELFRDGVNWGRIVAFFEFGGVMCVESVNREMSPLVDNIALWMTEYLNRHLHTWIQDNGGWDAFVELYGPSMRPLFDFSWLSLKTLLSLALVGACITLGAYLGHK

As for “NVYTEIKCNSLLPLDDIVRV (listed as Homo sapiens) [peptide 2, 20 amino acid peptide, aa 1389-1408 of IP3R subdomain 3a1]”, the “enhancement of anti-CD3-induced Ca2+ elevation” value is given as “did not enhance” in the assay on Jurkat cells (Jurkat cells with endogenous Bcl-2 knocked down by siRNA); “significantly enhanced” with Jurkat cells (Jurkat cells, 60 μM peptide with Chariot reagent); 40% with WEHI7.2 cells (Bcl-2(+) WEHI7.2 cells). Moreover, in the assay with Jurkat cells (absence of anti-CD3 stimulation (data not shown)), the “effect on intracellular Ca2+ levels” value is on record as “did not affect”. Moreover, the “effect on Ca2+ elevation” value in the assay on Jurkat cells (peptide added in the absence of Chariot reagent) was “no effect”. For the same sequence, the “effect on anti-CD3-induced Ca2+ elevation” value in the assay with WEHI7.2 cells (Bcl-2(−) WEHI7.2 cells) is reported as “did not have a significant effect”. In addition, in assay [1], the “rate of IP3-induced 45Ca2+ efflux” value is on record as “significantly increased”. Besides, the “amount of Bcl-2 bound to GST-IP3R domain 3” value in the assay with Bcl-2-IP3R interaction (200 μM peptide) and with Bcl-2-IP3R interaction (1 mM peptide) was “significantly decreased” each time.
